What follows are molecules tested against T1, hCRTH2 (Homo sapiens, UniProt Q9Y5Y4) (assay: Radioligand binding assay ([3H]PGD2 competition, HEK-hCRTH2 membranes)). Conditions: [3H]PGD2 binding, rated A-E (Table A).
T1 construct: expressed in transfected cells; host or cells: HEK (human embryonic kidney) cells expressing hCRTH2; membrane preparation
T1 sequence (Q9Y5Y4 1-395): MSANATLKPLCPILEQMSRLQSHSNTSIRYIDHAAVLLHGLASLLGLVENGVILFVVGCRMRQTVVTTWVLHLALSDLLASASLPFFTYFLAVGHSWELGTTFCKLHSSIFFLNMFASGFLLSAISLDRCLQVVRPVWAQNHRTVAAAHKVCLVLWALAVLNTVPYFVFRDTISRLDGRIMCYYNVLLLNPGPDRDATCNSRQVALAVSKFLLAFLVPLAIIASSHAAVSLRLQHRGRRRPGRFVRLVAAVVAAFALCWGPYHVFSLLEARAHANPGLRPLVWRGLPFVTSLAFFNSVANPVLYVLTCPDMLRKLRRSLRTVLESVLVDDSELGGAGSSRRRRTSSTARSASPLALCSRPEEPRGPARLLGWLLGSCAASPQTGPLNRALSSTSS
Method in brief: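 Displacement of 3.0 nM [3H]PGD2 from human CRTH2 expressed in HEK membranes was measured at room temperature over 60 min. Unlabelled PGD2 at 10 μM gave non-specific binding.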

Ki | Compound
2.1 to 20 nM | O=C(O)CCCCc1nc2cc(C(=O)NCc3ccc(C(F)(F)F)cc3)ccc2nc1-c1ccc(F)cc1 [compound 112]
0.1 to 2 nM | O=C(O)CCCCc1nc2cc(C(=O)NCc3cccc(C(F)(F)F)c3)ccc2nc1-c1ccc(Cl)cc1 [16AB, 3-(4-chlorophenyl)-7-[[[[3-(trifluoromethyl)phenyl]methyl]amino]carbonyl]-2-quinoxalinepentanoic acid]
0.1 to 2 nM | O=C(O)CCCCc1nc2cc(C(=O)N3CCC(c4ccccc4)CC3)ccc2nc1-c1ccc(C(F)(F)F)cc1 [compound 148, 7-[(4-phenyl-1-piperidinyl)carbonyl]-3-[4-(trifluoromethyl)phenyl]-2-quinoxalinepentanoic acid]
2.1 to 20 nM | CC(CCCc1nc2cc(C(=O)NCc3ccc(F)cc3)ccc2nc1-c1ccc(F)cc1)C(=O)O (stereo not drawn) [compound 204, 3-(4-fluorophenyl)-7-[[[(4-fluorophenyl)methyl]amino]carbonyl]-alpha-methyl-2-quinoxalinepentanoic acid]
0.1 to 2 nM | CN(Cc1ccccc1)C(=O)c1ccc2nc(-c3ccccc3)c(OCCCC(=O)O)nc2c1 [10E, 4-({7-[benzyl(methyl)carbamoyl]-3-phenylquinoxalin-2-yl}oxy)butanoic acid]
0.1 to 2 nM | O=C(O)CCCCc1nc2cc(C(=O)N[C@@H]3CCCc4cc(F)ccc43)ccc2nc1-c1ccc(Cl)cc1 [compound 184, 3-(4-chlorophenyl)-7-[[(6-fluoro-1,2,3,4-tetrahydro-1(R)-naphthalenyl)amino]carbonyl]-2-quinoxalinepentanoic acid]
20.1 to 200 nM | CC(C)Oc1ccc(-c2nc3ccc(C(=O)N4CCC(c5ccccc5)CC4)cc3nc2CCCCC(=O)O)cc1 [compound 216, 3-[4-(1-methyl-ethoxy)phenyl]-7-[(4-phenyl-1-piperidinyl)carbonyl]-2-quinoxalinepentanoic acid]
0.1 to 2 nM | C[C@H](NC(=O)c1ccc2nc(-c3ccc(Cl)cc3)c(CCCCC(=O)O)nc2c1)c1ccc(F)cc1 [16T, 3-(4-chlorophenyl)-7-[[[1(S)-(4-fluorophenyl)ethyl]amino]carbonyl]-2-quinoxalinepentanoic acid]
2.1 to 20 nM | O=C(O)Cc1cccc(CCc2nc3cc(C(=O)N4CC(c5ccccc5)C4)ccc3nc2-c2ccc(Cl)cc2)c1 [19K, 3-[2-[3-(4-chlorophenyl)-7-[(3-phenyl-1-azetidinyl)carbonyl]-2-quinoxalinyl]ethyl] benzeneacetic acid]
2.1 to 20 nM | CC(CCc1nc2cc(C(=O)N3CCC(c4ccccc4)CC3)ccc2nc1-c1ccc(Cl)cc1)CC(=O)O (stereo not drawn) [compound 17, 3-(4-chlorophenyl)-beta-methyl-7-[(4-phenyl-1-piperidinyl)carbonyl]-2-quinoxalinepentanoic acid]
20.1 to 200 nM | O=C(O)CCCCc1nc2cc(C(=O)NC3(c4ccccc4)CC3)cnc2nc1-c1ccccc1 [14E, 5-{3-phenyl-7-[(1-phenylcyclopropyl)carbamoyl]-pyrido[2,3-b]pyrazin-2-yl}pentanoic acid]
0.1 to 2 nM | COc1ccc(-c2nc3ccc(C(=O)N4CCC(c5ccccc5)CC4)cc3nc2CCCCC(=O)O)cc1 [26o, 3-(4-methoxyphenyl)-7-[(4-phenyl-1-piperidinyl)carbonyl]-2-quinoxalinepentanoic acid]

Same assay, conditions: [3H]PGD2 binding, values in text

Ki | Compound
37.4 nM | CC(c1ccon1)N(C)C(=O)c1ccc2nc(-c3ccc(Cl)cc3)c(CCCCC(=O)O)nc2c1 (stereo not shown) [compound 657, 5-(3-(4-chlorophenyl)-7-((1-(isoxazol-3-yl)ethyl)(methyl)carbamoyl)quinoxalin-2-yl) pentanoic acid]
1.4 nM | COc1ccc(-c2nc3ccc(C(=O)N4CCC(c5ccccc5)CC4)cc3nc2CCCCC(=O)O)cc1 [26o, 3-(4-methoxyphenyl)-7-[(4-phenyl-1-piperidinyl)carbonyl]-2-quinoxalinepentanoic acid]

Same assay, conditions: [3H]PGD2 competition, Table B

Compound | Ki
O=C(O)CCCCc1nc2cc(C(=O)NC3CCC(=O)Nc4ccccc43)ccc2nc1-c1ccc(Cl)cc1 (stereo not shown) [compound 268, 5-(3-(4-chlorophenyl)-7-((2-oxo-2,3,4,5-tetrahydro-1H-benzo[b]azepin-5-yl)carbamoyl)quinoxalin-2-yl)pentanoic acid] | 2.1 to 20 nM
O=C(O)CCCCc1nc2cc(C(=O)N3CCC4(CC3)OCc3ccccc34)ccc2nc1-c1ccc(F)cc1 [compound 362, 5-(3-(4-fluorophenyl)-7-(3H-spiro[isobenzofuran-1,4′-piperidin]-1′-ylcarbonyl)quinoxalin-2-yl)pentanoic acid] | 2.1 to 20 nM
CC(CCCc1nc2cc(C(=O)N[C@H](C)c3ccc(F)cc3)ccc2nc1-c1ccc(Cl)cc1)C(=O)O (stereo partly drawn) [compound 408, 5-(3-(4-chlorophenyl)-7-(((R)-1-(4-fluorophenyl)ethyl)carbamoyl)quinoxalin-2-yl)-2-methylpentanoic acid] | 0.1 to 2 nM
CN(Cc1ccc(F)cc1)C(=O)c1ccc2nc(-c3ccc(F)cc3)c(CCCc3cccc(CC(=O)O)c3)nc2c1 [compound 275, 2-(3-(3-(7-((4-fluorobenzyl)(methyl)carbamoyl)-3-(4-fluorophenyl)quinoxalin-2-yl)propyl)phenyl)acetic acid] | 20.1 to 200 nM
Cc1ccc(CNC(=O)c2ccc3nc(-c4ccccc4)c(CCCC(F)(F)C(=O)O)nc3c2)cc1 [compound 444] | 20.1 to 200 nM

Further lines, results first:

Ki | Compound
2.1 to 20 nM | O=C(O)CCCCc1nc2cc(C(=O)N[C@@H]3CCOc4ccccc43)c(F)cc2nc1-c1ccccc1 [compound 728, (R)-5-(7-(chroman-4-ylcarbamoyl)-6-fluoro-3-phenylquinoxalin-2-yl)pentanoic acid]
20.1 to 200 nM | CC(c1ccon1)N(C)C(=O)c1ccc2nc(-c3ccc(Cl)cc3)c(CCCCC(=O)O)nc2c1 (stereo not shown) [compound 657, 5-(3-(4-chlorophenyl)-7-((1-(isoxazol-3-yl)ethyl)(methyl)carbamoyl)quinoxalin-2-yl) pentanoic acid]
2.1 to 20 nM | O=C(O)CCCCc1nc2cc(C(=O)N3CCC(O)(c4ccccc4)C3)ccc2nc1-c1ccc(Cl)cc1 (stereo not shown) [compound 689, 5-(3-(4-chlorophenyl)-7-(3-hydroxy-3-phenylpyrrolidine-1-carbonyl)quinoxalin-2-yl)pentanoic acid]
2.1 to 20 nM | CC1(C)c2ccc(F)cc2CN1C(=O)c1ccc2nc(-c3ccc(Cl)cc3)c(CCCCC(=O)O)nc2c1 [compound 558, 5-(3-(4-chlorophenyl)-7-(5-fluoro-1,1-dimethylisoindoline-2-carbonyl)quinoxalin-2-yl)pentanoic acid]
20.1 to 200 nM | C[C@@H]1CN(C(=O)c2ccc3nc(-c4ccc(Cl)cc4)c(CCCCC(=O)O)nc3c2)[C@@H](C)CN1c1ccccc1 [compound 672, 5-(3-(4-chlorophenyl)-7-((2S,5R)-2,5-dimethyl-4-phenylpiperazine-1-carbonyl)quinoxalin-2-yl)pentanoic acid]
2.1 to 20 nM | Cc1ccc(CN2CCN(C(=O)c3ccc4nc(-c5ccc(Cl)cc5)c(CCCCC(=O)O)nc4c3)CC2)cc1 [compound 664, 5-(3-(4-chlorophenyl)-7-(4-(4-methylbenzyl)piperazine-1-carbonyl)quinoxalin-2-yl)pentanoic acid]
20.1 to 200 nM | O=C(O)CCCCc1nc2cc(C(=O)N[C@@H]3c4ccccc4C[C@@H]3O)ccc2nc1-c1ccc(F)cc1 [compound 509, 5-(3-(4-fluorophenyl)-7-(((1R,2S)-2-hydroxy-2,3-dihydro-1H-inden-1-yl)carbamoyl)quinoxalin-2-yl)pentanoic acid]
2.1 to 20 nM | C[C@H]1CN(c2ccc(F)cc2)CCN1C(=O)c1ccc2nc(-c3ccc(F)cc3)c(CCCCC(=O)O)nc2c1 [compound 497, (S)-5-(3-(4-fluoro-phenyl)-7-(4-(4-fluorophenyl)-2-methylpiperazine-1-carbonyl)quinoxalin-2-yl)pentanoic acid]
0.1 to 2 nM | O=C(O)CCCCc1nc2cc(C(=O)N3CCC4(CCCc5ccccc54)C3)ccc2nc1-c1ccc(Cl)cc1 (stereo not shown) [compound 565, 5-(3-(4-chlorophenyl)-7-(3,4-dihydro-2H-spiro [naphthalene-1,3′-pyrrolidin]-1′-ylcarbonyl)quinoxalin-2-yl)pentanoic acid]

From US9469615B2, “Quinoxalines and AZA-quinoxalines as CRTH2 receptor modulators” (Merck Sharp & Dohme Corp., priority 2010, dated 2016)
